Data taken from patent publication US8536351B2, “2-aryl-5-heterocyclyl-cyclohexane-1,3,dione compounds and their use as herbicides” (Syngenta Crop Protection LLC, priority 2007, dated 2013).

What was measured:
Type in all cases: in vivo
Avena fatua (AVEFA) [1] = assay: Pre-emergence activity, glasshouse pot test (100=total damage to plant; 0=no damage to plant); settings: rate 500 g/ha, evaluated 19, 20 or 21 days after spraying
Description: (§1) Monocotyledonous and dicotyledonous test plants were sown in standard soil in pots. After cultivation for one day (pre-emergence) or after 10 days cultivation (post-emergence) under controlled conditions in a glasshouse, the plants were sprayed with an aqueous spray solution derived from the formulation of the technical active ingredient in 0.6 ml acetone and 45 ml formulation solution containing 10.6% Emulsogen EL (Registry number 61791-12-6), 42.2% N-methyl pyrrolidone, 42.2% dipropylene glycol monomethyl ether (Registry number 34590-94-8) and 0.2% X-77 (Registry number 11097-66-8). The test plants were then grown in a greenhouse under optimum conditions until, 14 or 15 days later for post-emergence and 19, 20 or 21 days for pre-emergence, the test was evaluated (100=total damage to plant; 0=no damage to plant). Alopecurus myosuroides (ALOMY), Avena fatua (AVEFA), Lolium perenne (LOLPE), Setaria faberi (SETFA), Digitaria sanguinalis (DIGSA), Echinochloa crus-galli (ECHCG) Pre-Emergence Activity

[2] = tested on: Echinochloa crus-galli (ECHCG); assay: as above; settings: rate 500 g/ha, evaluated 19, 20 or 21 days after spraying
Description: as §1

[3] = tested on: Digitaria sanguinalis (DIGSA); assay: as above; settings: rate 500 g/ha, evaluated 19, 20 or 21 days after spraying
Description: as §1

Setaria faberi (SETFA) [4] = assay: as above; settings: rate 500 g/ha, evaluated 19, 20 or 21 days after spraying
Description: as §1

Lolium perenne (LOLPE) [5] = assay: as above; settings: rate 500 g/ha, evaluated 19, 20 or 21 days after spraying
Description: as §1

[6] = tested on: Alopecurus myosuroides (ALOMY); assay: as above; settings: rate 500 g/ha, evaluated 19, 20 or 21 days after spraying
Description: as §1

Avena fatua (AVEFA) [7] = assay: Post-emergence activity, glasshouse pot test (100=total damage to plant; 0=no damage to plant); settings: 336 h, evaluated 14 or 15 days after spraying; for pest or weed control at 500 g/ha: rate 500 g/ha
Description: as §1, with “Post-Emergence” for “Pre-Emergence”

[8] = tested on: Echinochloa crus-galli (ECHCG); assay: as above; settings: evaluated 14 or 15 days after spraying; for pest or weed control at 500 g/ha: rate 500 g/ha
Description: as §1, with “Post-Emergence” for “Pre-Emergence”

[9] = tested on: Digitaria sanguinalis (DIGSA); assay: as above; settings: evaluated 14 or 15 days after spraying; for pest or weed control at 500 g/ha: rate 500 g/ha
Description: as §1, with “Post-Emergence” for “Pre-Emergence”

Setaria faberi (SETFA) [10] = assay: as above; settings: evaluated 14 or 15 days after spraying; for pest or weed control at 500 g/ha: rate 500 g/ha
Description: as §1, with “Post-Emergence” for “Pre-Emergence”

Lolium perenne (LOLPE) [11] = assay: as above; settings: 336 h, evaluated 14 or 15 days after spraying; for pest or weed control at 500 g/ha: rate 500 g/ha
Description: as §1, with “Post-Emergence” for “Pre-Emergence”

[12] = tested on: Alopecurus myosuroides (ALOMY); assay: as above; settings: 336 h, evaluated 14 or 15 days after spraying; for pest or weed control at 500 g/ha: rate 500 g/ha
Description: as §1, with “Post-Emergence” for “Pre-Emergence”

Question: `CCc1cc(C)cc(CC)c1C1=C(OC(C)=O)CC(C2CCCS(=O)(=O)C2)CC1=O` (stereo not drawn) [Compound P2] was tested. Which pest or weed control at 500 g/ha (Avena fatua (AVEFA) [1]) did it give?
Answer: 100%

Question: And the pest or weed control at 500 g/ha [2]?
Answer: 100%

Question: What about the pest or weed control at 500 g/ha [3] of the same compound?
Answer: 100%

Question: What about the pest or weed control at 500 g/ha (Setaria faberi (SETFA) [4]) of the same compound?
Answer: 100%

Question: And the pest or weed control at 500 g/ha (Lolium perenne (LOLPE) [5])?
Answer: 80%

Question: What about the pest or weed control at 500 g/ha [6] of the same compound?
Answer: 90%

Question: And the pest or weed control at 125 g/ha (Avena fatua (AVEFA) [7]; rate 125 g/ha)?
Answer: 20%

Question: What about the pest or weed control at 125 g/ha ([8]; rate 125 g/ha) of the same compound?
Answer: 20%

Question: What about the pest or weed control at 125 g/ha ([9]; rate 125 g/ha) of the same compound?
Answer: 90%

Question: What about the pest or weed control at 125 g/ha (Setaria faberi (SETFA) [10]; rate 125 g/ha) of the same compound?
Answer: 20%

Question: And the pest or weed control at 125 g/ha (Lolium perenne (LOLPE) [11]; rate 125 g/ha)?
Answer: 0%

Question: What about the pest or weed control at 125 g/ha ([12]; rate 125 g/ha) of the same compound?
Answer: 10%

Question: How did the pest or weed control at 500 g/ha (Avena fatua (AVEFA) [1]) turn out when `CC(=O)OC1=C(c2c(C)cc(C)cc2C)C(=O)CC(C2CCOC2)C1` (stereo not drawn) [Compound P1, 3-oxo-5-(tetrahydrofuran-3-yl)-2-(2,4,6-trimethylphenyl)cyclohex-1-enyl acetate] was run?
Answer: 20%

Question: What about the pest or weed control at 500 g/ha [2] of the same compound?
Answer: 30%

Question: What about the pest or weed control at 500 g/ha [3] of the same compound?
Answer: 60%

Question: And the pest or weed control at 500 g/ha (Setaria faberi (SETFA) [4])?
Answer: 0%

Question: And the pest or weed control at 500 g/ha (Lolium perenne (LOLPE) [5])?
Answer: 70%

Question: What about the pest or weed control at 500 g/ha [6] of the same compound?
Answer: 60%

Question: What about the pest or weed control at 500 g/ha (Avena fatua (AVEFA) [7]) of the same compound?
Answer: 20%

Question: And the pest or weed control at 500 g/ha [8]?
Answer: 70%

Question: What about the pest or weed control at 500 g/ha [9] of the same compound?
Answer: 80%

Question: And the pest or weed control at 500 g/ha (Setaria faberi (SETFA) [10])?
Answer: 70%

Question: What about the pest or weed control at 500 g/ha (Lolium perenne (LOLPE) [11]) of the same compound?
Answer: 80%

Question: And the pest or weed control at 500 g/ha [12]?
Answer: 80%

Question: Which results are given for `Cc1cc(C)c(C2=C(O)CC(C3CCCSC3)CC2=O)c(C)c1` (stereo not drawn) [Compound T14]?
Answer: pest or weed control at 500 g/ha (Avena fatua (AVEFA) [1]): 20%; pest or weed control at 500 g/ha [2]: 70%; pest or weed control at 500 g/ha [3]: 90%; pest or weed control at 500 g/ha (Setaria faberi (SETFA) [4]): 90%; pest or weed control at 500 g/ha (Lolium perenne (LOLPE) [5]): 70%; pest or weed control at 500 g/ha [6]: 60%; pest or weed control at 500 g/ha (Avena fatua (AVEFA) [7]): 30%; pest or weed control at 500 g/ha [8]: 80%; pest or weed control at 500 g/ha [9]: 90%; pest or weed control at 500 g/ha (Setaria faberi (SETFA) [10]): 90%; pest or weed control at 500 g/ha (Lolium perenne (LOLPE) [11]): 60%; pest or weed control at 500 g/ha [12]: 70%

Question: For `Cc1cc(C)c(C2=C(O)CC(C3CCOCC3)CC2=O)c(C)c1` (stereo not drawn) [Compound T3], which pest or weed control at 500 g/ha (Avena fatua (AVEFA) [1]) is on record?
Answer: 90%

Question: And the pest or weed control at 500 g/ha [2]?
Answer: 100%

Question: And the pest or weed control at 500 g/ha [3]?
Answer: 100%

Question: What about the pest or weed control at 500 g/ha (Setaria faberi (SETFA) [4]) of the same compound?
Answer: 60%

Question: And the pest or weed control at 500 g/ha (Lolium perenne (LOLPE) [5])?
Answer: 100%

Question: And the pest or weed control at 500 g/ha [6]?
Answer: 90%

Question: What about the pest or weed control at 500 g/ha (Avena fatua (AVEFA) [7]) of the same compound?
Answer: 90%

Question: What about the pest or weed control at 500 g/ha [8] of the same compound?
Answer: 100%

Question: And the pest or weed control at 500 g/ha [9]?
Answer: 80%

Question: What about the pest or weed control at 500 g/ha (Setaria faberi (SETFA) [10]) of the same compound?
Answer: 90%

Question: What about the pest or weed control at 500 g/ha (Lolium perenne (LOLPE) [11]) of the same compound?
Answer: 100%

Question: What about the pest or weed control at 500 g/ha [12] of the same compound?
Answer: 100%

Question: Which pest or weed control at 500 g/ha (Avena fatua (AVEFA) [1]) does the source give for `CCc1cc(C)cc(CC)c1C1=C(O)CC(C2CCOC2)CC1=O` (stereo not drawn) [Compound T4, 2-(2,6-diethyl-4-methylphenyl)-5-(tetrahydrofuran-3-yl)cyclohexane-1,3-dione] here?
Answer: 70%

Question: And the pest or weed control at 500 g/ha [2]?
Answer: 100%

Question: What about the pest or weed control at 500 g/ha [3] of the same compound?
Answer: 90%

Question: And the pest or weed control at 500 g/ha (Setaria faberi (SETFA) [4])?
Answer: 100%

Question: What about the pest or weed control at 500 g/ha (Lolium perenne (LOLPE) [5]) of the same compound?
Answer: 100%

Question: And the pest or weed control at 500 g/ha [6]?
Answer: 100%

Question: And the pest or weed control at 500 g/ha (Avena fatua (AVEFA) [7])?
Answer: 100%

Question: What about the pest or weed control at 500 g/ha [8] of the same compound?
Answer: 80%

Question: And the pest or weed control at 500 g/ha [9]?
Answer: 100%

Question: And the pest or weed control at 500 g/ha (Setaria faberi (SETFA) [10])?
Answer: 100%

Question: And the pest or weed control at 500 g/ha (Lolium perenne (LOLPE) [11])?
Answer: 100%

Question: What about the pest or weed control at 500 g/ha [12] of the same compound?
Answer: 100%

Question: For `CCc1ccc(-c2ccc(Cl)cc2)cc1C1=C(O)CC(C2CCOCC2)CC1=O` (stereo not drawn) [Compound T8], which pest or weed control at 500 g/ha (Avena fatua (AVEFA) [1]) is on record?
Answer: 60%

Question: And the pest or weed control at 500 g/ha [2]?
Answer: 100%

Question: And the pest or weed control at 500 g/ha [3]?
Answer: 100%

Question: What about the pest or weed control at 500 g/ha (Setaria faberi (SETFA) [4]) of the same compound?
Answer: 100%

Question: What about the pest or weed control at 500 g/ha (Lolium perenne (LOLPE) [5]) of the same compound?
Answer: 80%

Question: And the pest or weed control at 500 g/ha [6]?
Answer: 100%

Question: And the pest or weed control at 500 g/ha (Avena fatua (AVEFA) [7])?
Answer: 70%

Question: What about the pest or weed control at 500 g/ha [8] of the same compound?
Answer: 90%

Question: What about the pest or weed control at 500 g/ha [9] of the same compound?
Answer: 90%

Question: What about the pest or weed control at 500 g/ha (Setaria faberi (SETFA) [10]) of the same compound?
Answer: 90%

Question: What about the pest or weed control at 500 g/ha (Lolium perenne (LOLPE) [11]) of the same compound?
Answer: 100%

Question: What about the pest or weed control at 500 g/ha [12] of the same compound?
Answer: 80%

Question: What does the source list for `Cc1cc(C)c(C2=C(O)CC(C3CCSCC3)CC2=O)c(C)c1` (stereo not drawn) [Compound T15]?
Answer: pest or weed control at 500 g/ha (Avena fatua (AVEFA) [1]): 60%; pest or weed control at 500 g/ha [2]: 20%; pest or weed control at 500 g/ha [3]: 70%; pest or weed control at 500 g/ha (Setaria faberi (SETFA) [4]): 90%; pest or weed control at 500 g/ha (Lolium perenne (LOLPE) [5]): 80%; pest or weed control at 500 g/ha [6]: 60%; pest or weed control at 500 g/ha (Avena fatua (AVEFA) [7]): 20%; pest or weed control at 500 g/ha [8]: 70%; pest or weed control at 500 g/ha [9]: 80%; pest or weed control at 500 g/ha (Setaria faberi (SETFA) [10]): 90%; pest or weed control at 500 g/ha (Lolium perenne (LOLPE) [11]): 60%; pest or weed control at 500 g/ha [12]: 60%
